Values after ≈ are worked out from the molar mass of the structure shown.

Test systems include Staphylococcus aureus; Pseudomonas aeruginosa; Escherichia coli JM109; Escherichia coli O157.
What all share (experiment): ≥ marks a high value that may be exact or a test limit, other limits are often not marked, values filed in µg/mL are converted to µM
The test system of assay [1] is Staphylococcus aureus ATCC 6538P.
Assay [2] relates to Staphylococcus epidermidis ATCC 12228.
Assay [3] concerns Shigella flexneri ATCC 203.
Assay [4] has as its system Escherichia coli ATCC 2592.
The subject of assay [5] is Corynebacterium diphtheriae ATCC 8024.
Assay [6] has as its system Micrococcus luteus ATCC 9341.
The test system of assay [7] is Candida albicans ATCC 36232.
In assay [8] the test system is Pseudomonas aeruginosa ATCC 9027.
Assay [9] relates to Bacillus subtilis ATCC 6633.
Assay [10] relates to Staphylococcus aureus ATCC 6538.
For assay [11], the system named is Pseudomonas aeruginosa PAK.
In assay [12] the test system is Streptococcus mutans UA159.
Assay [13] deals with Streptococcus mitis ATCC 903.
The test system of assay [14] is Streptococcus gordonii Challis DL1.
In assay [15] the test system is Streptococcus sanguinis NY101.
Assay [16] relates to Salmonella enterica subsp. arizonae ATCC 13314.
The subject of assay [17] is Enterococcus faecalis ATCC 29212.
In assay [18] the test system is Escherichia coli ATCC 35218.
The test system of assay [19] is Streptococcus pyogenes ATCC 19615.
The test system of assay [20] is Bacillus cereus ATCC 11778.
The test system of assay [21] is Escherichia coli ATCC 25922.

What is called MIC is the smallest concentration in the dilution series that meets the test's criterion for growth inhibition. Low readings indicate inhibition by little substance, high ones a need for much substance. `CC[C@H](C)[C@H](NC(=O)[C@H](C)NC(=O)[C@H](CC(C)C)NC(=O)[C@H](Cc1c[nH]c2ccccc12)NC(=O)[C@H](CC(C)C)NC(=O)[C@H](C)N)C(=O)N[C@@H](CCCN=C(N)N)C(=O)N[C@@H](CCCN=C(N)N)C(=O)N[C@@H](CCCN=C(N)N)C(N)=O` [ALWLAIRRR]: the MIC is 27.7 µM (≈ 32 µg/mL) in the assay with Staphylococcus aureus, 3.46 µM (≈ 4 µg/mL) with Pseudomonas aeruginosa, 2.6 µM (≈ 3 µg/mL) in the assay on Escherichia coli JM109 and 1.73 µM (≈ 2 µg/mL) in assay [1].

As for `CC(C)[C@H](NC(=O)[C@H](CS)NC(=O)[C@@H](NC(=O)[C@H](CCCN=C(N)N)NC(=O)[C@H](CCCCN)NC(=O)CNC(=O)[C@H](CC(N)=O)NC(=O)[C@@H](N)CS)C(C)C)C(=O)N[C@@H](CS)C(=O)N[C@@H](CCCN=C(N)N)C(N)=O` [CNGKRVCVCR], the MIC in the assay with Staphylococcus aureus is greater than 87.9 µM; in assay [2] it was 13.2 µM (≈ 15 µg/mL); in assay [3] it was 26.4 µM (≈ 30 µg/mL); in assay [4], 6.59 µM (≈ 7.49 µg/mL); in assay [5], 6.59 µM (≈ 7.49 µg/mL); in assay [6], 11 µM (≈ 12.5 µg/mL). The MIC in assay [7] came to 13.2 µM (≈ 15 µg/mL); in [8] it was 44 µM (≈ 50 µg/mL); in [9] it was 13.2 µM (≈ 15 µg/mL); in assay [10], 26.4 µM (≈ 30 µg/mL).

`CC[C@H](C)[C@H](NC(=O)[C@H](Cc1ccccc1)NC(=O)[C@H](Cc1cnc[nH]1)NC(=O)[C@H](CCCCN)NC(=O)[C@@H](NC(=O)[C@@H](N)Cc1ccccc1)[C@@H](C)CC)C(=O)N[C@@H](Cc1cnc[nH]1)C(=O)N[C@@H](CCCN=C(N)N)C(=O)N[C@@H](Cc1ccccc1)C(=O)N[C@@H](CO)C(=O)N[C@@H](C)C(=O)N[C@H](C(=O)N[C@@H](CCCN=C(N)N)C(=O)N[C@@H](Cc1c[nH]c2ccccc12)C(=O)N[C@@H](CCCN=C(N)N)C(=O)N[C@@H](Cc1c[nH]c2ccccc12)C(=O)N[C@@H](CCCN=C(N)N)C(=O)N[C@@H](Cc1c[nH]c2ccccc12)C(=O)N[C@@H](Cc1ccccc1)C(N)=O)[C@@H](C)O` [FIKHFIHRFSATRWRWRWF]: the MIC against Staphylococcus aureus was found to be 46.7 µM (≈ 125 µg/mL); in [11], 23.3 µM (≈ 62.5 µg/mL); in assay [12], 2.99 µM (≈ 8 µg/mL); in [13], 5.97 µM (≈ 16 µg/mL); in assay [14], 11.9 µM (≈ 32 µg/mL); in [15], 11.9 µM (≈ 32 µg/mL).

Turning to `CC(C)C[C@H](NC(=O)[C@H](CCC(N)=O)NC(=O)[C@H](Cc1ccc(O)cc1)NC(=O)[C@H](CCCN=C(N)N)NC(=O)CNC(=O)[C@H](C)NC(=O)[C@H](C)NC(=O)[C@@H](NC(=O)[C@H](CO)NC(=O)[C@H](Cc1ccc(O)cc1)NC(=O)[C@@H](NC(=O)[C@H](CCCCN)NC(=O)[C@H](Cc1ccc(O)cc1)NC(=O)[C@H](CCCN=C(N)N)NC(=O)[C@@H]1CCCN1C(=O)[C@H](CC(C)C)NC(=O)[C@H](Cc1ccc(O)cc1)NC(=O)[C@@H](NC(=O)[C@H](CCCCN)NC(=O)[C@H](CC(C)C)NC(=O)[C@H](CCCN=C(N)N)NC(=O)[C@@H]1CCCN1)C(C)C)C(C)C)[C@@H](C)O)C(=O)N[C@@H](CC(C)C)C(=O)N[C@@H](CO)C(=O)N[C@@H](CCCN=C(N)N)C(=O)N[C@@H](Cc1ccc(O)cc1)C(=O)N[C@@H](Cc1c[nH]c2ccccc12)C(N)=O` [PRLKVYLPRYKVYSTAAGRYQLLSRYW], the MIC in assay [16] is no less than 150 µM; in assay [17], 150 µM (≈ 502 µg/mL); in assay [2], 150 µM (≈ 502 µg/mL); in assay [6], 19 µM (≈ 63.6 µg/mL); in assay [8], greater than 150 µM; against Escherichia coli O157, no less than 150 µM. Also, the MIC in assay [18] was no less than 150 µM; in assay [19], no less than 38 µM; in assay [20], no less than 75 µM; in assay [21], 150 µM (≈ 502 µg/mL).

The values are drawn from DBAASP.
